# Columns and labels:
# Assay type in all cases: in vivo
# [1] = test system: transplanted Oryza sativa; test: Test Example 1: effect on crop, application before weed generation in submerged conditions; details: Application herbicide amount 320 g/ha; Seventeenth Table
# How it was run: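 Submerged pot test: alluvial soil, 4 cm water, seeds sown mixed, 2.5-leaf rice transplanted; emulsion in water applied to surface day of sowing, dose g/ha; greenhouse 25–30° C.; 3 wk; 0–5 rating.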
# [2] = test system: Abutilon theophrasti; test: Test Example 4: herbicidal effect by application to foliage (diluvial soil, plastic box); details: for M (Abutilon theophrasti) herbicidal effect grade: Application herbicide amount 320 g/ha, foliage application; for M: herbicidal effect on Abutilon theophrasti: application to foliage, application herbicide amount 320 g/ha
# How it was run: (§1)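 Read-out is a 0–5 visual grade of herbicidal ratio (5: ≥90%, almost withered; 0: ≤5%) taken three weeks after treatment. Compound was applied as a diluted emulsion to stem and leaf parts of 14-day greenhouse-grown plants (25° C. to 30° C.) at rates expressed as g/ha.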
# [3] = test system: Alopecurus myosuroides; test: as above; details: for J (Alopecurus myosuroides) herbicidal effect grade: Application herbicide amount 320 g/ha, foliage application; for J: herbicidal effect on Alopecurus myosuroides: application to foliage, application herbicide amount 320 g/ha
# How it was run: as §1
# [4] = test system: Amaranthus retroflexus; test: as above; details: for N (Amaranthus retroflexus) herbicidal effect grade: Application herbicide amount 320 g/ha, foliage application; for N: herbicidal effect on Amaranthus retroflexus: application to foliage, application herbicide amount 320 g/ha
# How it was run: as §1
# [5] = test system: Apera spica-venti.; test: as above; details: for L (Apera spica-venti.) herbicidal effect grade: Application herbicide amount 320 g/ha, foliage application; for L: herbicidal effect on Apera spica-venti.: application to foliage, application herbicide amount 320 g/ha
# How it was run: as §1
# [6] = test system: Avena fatua; test: as above; details: for I (Avena fatua) herbicidal effect grade: Application herbicide amount 320 g/ha, foliage application; for I: herbicidal effect on Avena fatua: application to foliage, application herbicide amount 320 g/ha
# How it was run: as §1
# [7] = test system: Chenopodium album; test: as above; details: for O (Chenopodium album) herbicidal effect grade: Application herbicide amount 320 g/ha, foliage application; for O: herbicidal effect on Chenopodium album: application to foliage, application herbicide amount 320 g/ha
# How it was run: as §1
# [8] = test system: Digitaria ciliaris; test: as above; details: for F (Digitaria ciliaris) herbicidal effect grade: Application herbicide amount 320 g/ha, foliage application; for F: herbicidal effect on Digitaria ciliaris: application to foliage, application herbicide amount 320 g/ha
# How it was run: as §1
# [9] = test system: Echinochloa crus-galli var. crus-galli; test: as above; details: for H (Echinochloa crus-galli var. crus-galli) herbicidal effect grade: Application herbicide amount 320 g/ha, foliage application; for H: herbicidal effect on Echinochloa crus-galli var. crus-galli: application to foliage, application herbicide amount 320 g/ha
# How it was run: as §1
# [10] = test system: Galium spurium; test: as above; details: for Q (Galium spurium) herbicidal effect grade: Application herbicide amount 320 g/ha, foliage application; for Q: herbicidal effect on Galium spurium: application to foliage, application herbicide amount 320 g/ha
# How it was run: as §1
# [11] = test system: Lolium multiflorum Lam.; test: as above; details: for K (Lolium multiflorum Lam.) herbicidal effect grade: Application herbicide amount 320 g/ha, foliage application; for K: herbicidal effect on Lolium multiflorum Lam.: application to foliage, application herbicide amount 320 g/ha
# How it was run: as §1
# [12] = test system: Setaria viridis; test: as above; details: for G (Setaria viridis) herbicidal effect grade: Application herbicide amount 320 g/ha, foliage application; for G: herbicidal effect on Setaria viridis: application to foliage, application herbicide amount 320 g/ha
# How it was run: as §1
# [13] = test system: Stellaria media; test: as above; details: for P (Stellaria media) herbicidal effect grade: Application herbicide amount 320 g/ha, foliage application; for P: herbicidal effect on Stellaria media: application to foliage, application herbicide amount 320 g/ha
# How it was run: as §1
# [14] = test system: Veronica persica; test: as above; details: for R (Veronica persica) herbicidal effect grade: Application herbicide amount 320 g/ha, foliage application; for R: herbicidal effect on Veronica persica: application to foliage, application herbicide amount 320 g/ha
# How it was run: as §1
# [15] = test system: Beta vulgaris ssp. vulgaris; test: Test Example 4: effect on crop by application to foliage (diluvial soil, plastic box); details: for f (Beta vulgaris ssp. vulgaris) effect on crop grade: Application herbicide amount 320 g/ha, foliage application; for f: effect on crop, Beta vulgaris ssp. vulgaris: application to foliage, application herbicide amount 320 g/ha
# How it was run: as §1
# [16] = test system: Brassica campestris L.; test: as above; details: for g (Brassica campestris L.) effect on crop grade: Application herbicide amount 320 g/ha, foliage application; for g: effect on crop, Brassica campestris L.: application to foliage, application herbicide amount 320 g/ha
# How it was run: as §1
# [17] = test system: Glycine max; test: as above; details: for d (Glycine max) effect on crop grade: Application herbicide amount 320 g/ha, foliage application; for d: effect on crop, Glycine max: application to foliage, application herbicide amount 320 g/ha
# How it was run: as §1
# [18] = test system: Triticum aestivum; test: as above; details: for e (Triticum aestivum) effect on crop grade: Application herbicide amount 320 g/ha, foliage application; for e: effect on crop, Triticum aestivum: application to foliage, application herbicide amount 320 g/ha
# How it was run: as §1
# [19] = test system: Zea mays; test: as above; details: for c (Zea mays) effect on crop grade: Application herbicide amount 320 g/ha, foliage application; for c: effect on crop, Zea mays: application to foliage, application herbicide amount 320 g/ha
# How it was run: as §1
# [20] = test system: directly sowed Oryza sativa; test: as above; details: for b (directly sowed Oryza sativa) effect on crop grade: Application herbicide amount 320 g/ha, foliage application; for b: effect on crop, directly sowed Oryza sativa: application to foliage, application herbicide amount 320 g/ha
# How it was run: as §1
SMILES,a: transplanted Oryza sativa (effect on crop grade) [1],M (Abutilon theophrasti) herbicidal effect grade [2],J (Alopecurus myosuroides) herbicidal effect grade [3],N (Amaranthus retroflexus) herbicidal effect grade [4],L (Apera spica-venti.) herbicidal effect grade [5],I (Avena fatua) herbicidal effect grade [6],O (Chenopodium album) herbicidal effect grade [7],F (Digitaria ciliaris) herbicidal effect grade [8],H (Echinochloa crus-galli var. crus-galli) herbicidal effect grade [9],Q (Galium spurium) herbicidal effect grade [10],K (Lolium multiflorum Lam.) herbicidal effect grade [11],G (Setaria viridis) herbicidal effect grade [12],P (Stellaria media) herbicidal effect grade [13],R (Veronica persica) herbicidal effect grade [14],f (Beta vulgaris ssp. vulgaris) effect on crop grade [15],g (Brassica campestris L.) effect on crop grade [16],d (Glycine max) effect on crop grade [17],e (Triticum aestivum) effect on crop grade [18],c (Zea mays) effect on crop grade [19],b (directly sowed Oryza sativa) effect on crop grade [20],also measured
C#CCN(C)c1nnc2c(C(=O)Nc3nnc(C)o3)ccc(C(F)(F)F)n12 [1-152],2 (Herbicidal ratio of 20% or more and less than 40%),3 (Herbicidal ratio of 40% or more and less than 70%),0 (Herbicidal ratio of 5% or less (almost no effect)),4 (Herbicidal ratio of 70% or more and less than 90%),1 (Herbicidal ratio of 5% or more and less than 20%),2 (Herbicidal ratio of 20% or more and less than 40%),5 (Herbicidal ratio of 90% or more (almost completely withered)),4 (Herbicidal ratio of 70% or more and less than 90%),4 (Herbicidal ratio of 70% or more and less than 90%),1 (Herbicidal ratio of 5% or more and less than 20%),1 (Herbicidal ratio of 5% or more and less than 20%),3 (Herbicidal ratio of 40% or more and less than 70%),4 (Herbicidal ratio of 70% or more and less than 90%),3 (Herbicidal ratio of 40% or more and less than 70%),4 (Herbicidal ratio of 70% or more and less than 90%),1 (Herbicidal ratio of 5% or more and less than 20%),3 (Herbicidal ratio of 40% or more and less than 70%),0 (Herbicidal ratio of 5% or less (almost no effect)),0 (Herbicidal ratio of 5% or less (almost no effect)),0 (Herbicidal ratio of 5% or less (almost no effect)),
Cc1nnc(NC(=O)c2ccc(C(F)(F)F)n3c(N(C)CCC#N)nnc23)o1 [1-153],2 (Herbicidal ratio of 20% or more and less than 40%),3 (Herbicidal ratio of 40% or more and less than 70%),1 (Herbicidal ratio of 5% or more and less than 20%),4 (Herbicidal ratio of 70% or more and less than 90%),2 (Herbicidal ratio of 20% or more and less than 40%),3 (Herbicidal ratio of 40% or more and less than 70%),5 (Herbicidal ratio of 90% or more (almost completely withered)),4 (Herbicidal ratio of 70% or more and less than 90%),5 (Herbicidal ratio of 90% or more (almost completely withered)),4 (Herbicidal ratio of 70% or more and less than 90%),1 (Herbicidal ratio of 5% or more and less than 20%),4 (Herbicidal ratio of 70% or more and less than 90%),5 (Herbicidal ratio of 90% or more (almost completely withered)),4 (Herbicidal ratio of 70% or more and less than 90%),5 (Herbicidal ratio of 90% or more (almost completely withered)),3 (Herbicidal ratio of 40% or more and less than 70%),5 (Herbicidal ratio of 90% or more (almost completely withered)),2 (Herbicidal ratio of 20% or more and less than 40%),0 (Herbicidal ratio of 5% or less (almost no effect)),3 (Herbicidal ratio of 40% or more and less than 70%),
COc1ccc(N(C)c2nnc3c(C(=O)Nc4nnc(C)o4)ccc(C(F)(F)F)n23)cc1 [1-165],0 (Herbicidal ratio of 5% or less (almost no effect)),,,,,,,,,,,,,,,,,,,,"M: herbicidal effect on Abutilon theophrasti [2]: 3 (Herbicidal ratio of 40% or more and less than 70%); J: herbicidal effect on Alopecurus myosuroides [3]: 0 (Herbicidal ratio of 5% or less (almost no effect)); N: herbicidal effect on Amaranthus retroflexus [4]: 4 (Herbicidal ratio of 70% or more and less than 90%); L: herbicidal effect on Apera spica-venti. [5]: 2 (Herbicidal ratio of 20% or more and less than 40%); I: herbicidal effect on Avena fatua [6]: 0 (Herbicidal ratio of 5% or less (almost no effect)); O: herbicidal effect on Chenopodium album [7]: 5 (Herbicidal ratio of 90% or more (almost completely withered)); F: herbicidal effect on Digitaria ciliaris [8]: 3 (Herbicidal ratio of 40% or more and less than 70%); H: herbicidal effect on Echinochloa crus-galli var. crus-galli [9]: 4 (Herbicidal ratio of 70% or more and less than 90%); Q: herbicidal effect on Galium spurium [10]: 2 (Herbicidal ratio of 20% or more and less than 40%); K: herbicidal effect on Lolium multiflorum Lam. [11]: 0 (Herbicidal ratio of 5% or less (almost no effect)); G: herbicidal effect on Setaria viridis [12]: 1 (Herbicidal ratio of 5% or more and less than 20%); P: herbicidal effect on Stellaria media [13]: 4 (Herbicidal ratio of 70% or more and less than 90%); R: herbicidal effect on Veronica persica [14]: 4 (Herbicidal ratio of 70% or more and less than 90%); f: effect on crop, Beta vulgaris ssp. vulgaris [15]: 5 (Herbicidal ratio of 90% or more (almost completely withered)); g: effect on crop, Brassica campestris L. [16]: 4 (Herbicidal ratio of 70% or more and less than 90%); d: effect on crop, Glycine max [17]: 1 (Herbicidal ratio of 5% or more and less than 20%); e: effect on crop, Triticum aestivum [18]: 0 (Herbicidal ratio of 5% or less (almost no effect)); c: effect on crop, Zea mays [19]: 0 (Herbicidal ratio of 5% or less (almost no effect)); b: effect on crop, directly sowed Oryza sativa [20]: 0 (Herbicidal ratio of 5% or less (almost no effect))"
COc1ccc(CN(C)c2nnc3c(C(=O)Nc4nnc(C)o4)ccc(C(F)(F)F)n23)cc1 [1-167],0 (Herbicidal ratio of 5% or less (almost no effect)),,,,,,,,,,,,,,,,,,,,"M: herbicidal effect on Abutilon theophrasti [2]: 2 (Herbicidal ratio of 20% or more and less than 40%); J: herbicidal effect on Alopecurus myosuroides [3]: 0 (Herbicidal ratio of 5% or less (almost no effect)); N: herbicidal effect on Amaranthus retroflexus [4]: 2 (Herbicidal ratio of 20% or more and less than 40%); L: herbicidal effect on Apera spica-venti. [5]: 1 (Herbicidal ratio of 5% or more and less than 20%); I: herbicidal effect on Avena fatua [6]: 1 (Herbicidal ratio of 5% or more and less than 20%); O: herbicidal effect on Chenopodium album [7]: 5 (Herbicidal ratio of 90% or more (almost completely withered)); F: herbicidal effect on Digitaria ciliaris [8]: 0 (Herbicidal ratio of 5% or less (almost no effect)); H: herbicidal effect on Echinochloa crus-galli var. crus-galli [9]: 2 (Herbicidal ratio of 20% or more and less than 40%); Q: herbicidal effect on Galium spurium [10]: 2 (Herbicidal ratio of 20% or more and less than 40%); K: herbicidal effect on Lolium multiflorum Lam. [11]: 1 (Herbicidal ratio of 5% or more and less than 20%); G: herbicidal effect on Setaria viridis [12]: 0 (Herbicidal ratio of 5% or less (almost no effect)); P: herbicidal effect on Stellaria media [13]: 5 (Herbicidal ratio of 90% or more (almost completely withered)); R: herbicidal effect on Veronica persica [14]: 4 (Herbicidal ratio of 70% or more and less than 90%); f: effect on crop, Beta vulgaris ssp. vulgaris [15]: 5 (Herbicidal ratio of 90% or more (almost completely withered)); g: effect on crop, Brassica campestris L. [16]: 0 (Herbicidal ratio of 5% or less (almost no effect)); d: effect on crop, Glycine max [17]: 1 (Herbicidal ratio of 5% or more and less than 20%); e: effect on crop, Triticum aestivum [18]: 0 (Herbicidal ratio of 5% or less (almost no effect)); c: effect on crop, Zea mays [19]: 0 (Herbicidal ratio of 5% or less (almost no effect)); b: effect on crop, directly sowed Oryza sativa [20]: 0 (Herbicidal ratio of 5% or less (almost no effect))"

# Source: patent US9708314B2, “Heterocyclic amide compound” (NISSAN CHEMICAL INDUSTRIES, LTD., priority 2013, dated 2017)
